What was measured:
[1] = biological target: T1, p58 (Homo sapiens, UniProt P14618); test: T3 binding in subcellular fractions of A431 cells; conditions: for Specific [125I]T3 bound: 50 ug protein
T1 construct: endogenous in cells; host or cells: A431 cells
Experimental: Overnight cultures of A431 cells (1×10^7 cells/150 mm dish) were washed with 30 ml of PBS (Ca^++ and Mg^++ free). Cells were harvested with a rubber policeman and pelleted. The cell pellet was resuspended in 2 ml of homogenization buffer (0.25M sucrose, 20 mM Tris, 1.1 mM MgCl2, pH 7.85) and homogenized in a tight dounce homogenizer. After centrifugation at 800 xg for 10 min, the supernatant was further centrifuged at 110,000 xg for 90 min at 4° C. (supernatant A). The pellet was resuspended by pipetting in 1 ml of the homogenizing buffer. The suspension was centrifuged at 110,000 xg for 90 min (supernatant B). The pellet was extracted with 1 ml of 3 mM CHAPS by stirring for 30 min. The suspension was centrifuged at 110,000 xg for 90 min (supernatant C).

[2] = biological target: T2, purified p58 (Homo sapiens, UniProt P14618); test: Binding of [125I]T3 and analogs to purified p58; conditions: competition with [125I]T3, equilibrium conditions
T2 construct: p 58 was purified from A431 cells; endogenous in cells; host or cells: A431 cells (purified native protein)
T2 sequence (P14618 whole entry): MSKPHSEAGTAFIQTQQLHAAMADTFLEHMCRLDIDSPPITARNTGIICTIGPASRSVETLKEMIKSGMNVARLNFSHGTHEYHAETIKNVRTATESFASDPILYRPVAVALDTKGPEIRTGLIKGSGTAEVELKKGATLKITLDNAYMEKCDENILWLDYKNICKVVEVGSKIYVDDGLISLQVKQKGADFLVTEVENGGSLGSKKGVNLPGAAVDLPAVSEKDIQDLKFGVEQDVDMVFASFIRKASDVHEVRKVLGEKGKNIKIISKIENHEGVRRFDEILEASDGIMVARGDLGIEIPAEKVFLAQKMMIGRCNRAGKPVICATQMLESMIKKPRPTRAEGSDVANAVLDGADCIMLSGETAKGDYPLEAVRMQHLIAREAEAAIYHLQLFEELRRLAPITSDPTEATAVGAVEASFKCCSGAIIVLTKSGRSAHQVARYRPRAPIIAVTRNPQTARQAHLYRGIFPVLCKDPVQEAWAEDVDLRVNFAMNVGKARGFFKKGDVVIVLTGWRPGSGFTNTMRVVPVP
Experimental: Binding data were analyzed by least squares analysis as described in Horiuchi et al, supra.

T1 sequence (P14618 2-531 limits assumed): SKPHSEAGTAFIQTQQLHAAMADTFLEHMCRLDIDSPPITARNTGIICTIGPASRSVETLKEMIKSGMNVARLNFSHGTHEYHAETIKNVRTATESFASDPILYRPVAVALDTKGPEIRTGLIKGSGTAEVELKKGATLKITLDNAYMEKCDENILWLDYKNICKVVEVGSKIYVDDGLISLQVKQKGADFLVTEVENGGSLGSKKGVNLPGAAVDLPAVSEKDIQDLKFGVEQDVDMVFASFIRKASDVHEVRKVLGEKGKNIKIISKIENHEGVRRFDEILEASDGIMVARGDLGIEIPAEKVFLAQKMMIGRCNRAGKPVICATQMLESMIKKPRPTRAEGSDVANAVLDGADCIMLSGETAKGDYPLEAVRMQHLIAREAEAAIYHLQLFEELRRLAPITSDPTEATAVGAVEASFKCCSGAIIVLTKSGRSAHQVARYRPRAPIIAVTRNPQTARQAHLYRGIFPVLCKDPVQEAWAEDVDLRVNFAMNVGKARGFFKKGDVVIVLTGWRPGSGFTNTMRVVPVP

Question: With N[C@@H](Cc1cc(I)c(Oc2ccc(O)c(I)c2)c(I)c1)C(=O)O [[^125 I]T3] as the compound, how does the “Specific [125I]T3 bound, % of total” value ([1]; 110,000 xg Pellet) read?
Answer: The value was 6 % of total.

Question: And the “Specific [125I]T3 bound” value ([1]; 110,000 xg Pellet)?
Answer: Its value is 0.17 dpm(× 10^-4).

Question: And the “Specific [125I]T3 bound, % of total” value ([1]; 110,000 xg Supernatant)?
Answer: The value was 94 % of total.

Question: And the “Specific [125I]T3 bound” value ([1]; 110,000 xg Supernatant)?
Answer: The value was 2.5 dpm(× 10^-4).

Question: With N[C@@H](Cc1cc(I)c(Oc2cc(I)c(O)c(I)c2)c(I)c1)C(=O)O [T4] as the compound, how does the “affinity for p58 compared with T3” value [2] read?
Answer: The value was “affinity similar to that of T3”.

Question: With N[C@@H](Cc1ccc(Oc2cc(I)c(O)c(I)c2)c(I)c1)C(=O)O [reverse-T3] as the compound, how does the “affinity for p58, fold less than that of T3” value [2] read?
Answer: The value was 10 fold.
